Values after ≈ are worked out from the molar mass of the structure shown. Values joined by “and” are separate entries in the source; they are usually repeats but may differ in a detail not shown here. Equal values may be shown once. Read-outs that look alike come from different tables or passages of the source.
Assays:
[1] = tested on: brine shrimp (Artemia salina Leach); test: Brine shrimp toxicity bioassay; type: in vivo; settings: for LC50: Artemia salina, read-out: LC50 brine shrimp
Experimental: There are many applications of the assay including analysis of toxic substances, anaesthetics, morphine-like substances and cocarcinogenicity of phorbol esters.
6 (K Hostettman, ed.), Academ Press, London, 1-32. DMSO solutions of the substances to be tested were added directly to the vials containing the brine shrimp. As the concentration of DMSO that we wished to use was higher than the recommended 1% v/v testing of the toxicity of the DMSO was therefore necessary.
Brine shrimp toxicity was assayed, except for some minor modifications, according to the method of McLaughlin et al as reported in Brine Shrimp: A convenient general bioassay for active plant constituents, B N Meyer, N R Ferrigni, J E Putman, L B Jacobsen, D E Nhols and J L McLaughlin. […] J L McLaughlin. […] 6 (K Hostettman, ed.), Academ Press, London, 1-32. Ten shrimp were added transferred to each of the vials and the volume adjusted to 4.9 mL. Each dose was performed in triplicate, including the control. In quick succession, the appropriate volume of additional DMSO for each dose, required to achieve a final concentration of 2%, was added before the appropriate volume of test solution. The vials were gently mixed and the time noted. After 24 hours, the number of survivors were counted and % mortality was determined.
The LC50 values were expressed in both μM and μg/mL.

[2] = target: T1, human erythrocyte plasma membrane Ca^2+ -ATPase (Homo sapiens, UniProt P23634); test: Ca^2+ -ATPase assay (microplate method), absence (-CaM) and presence (+CaM) of calmodulin (Table 1A); type: biochemical
T1 construct: Calmodulin-depleted erythrocyte membranes were prepared by continuous filtration through a hollow fibre; tissue New South Wales Red Cross Transfusion Service, Sydney; host or cells: human packed red blood cells (calmodulin-depleted erythrocyte membranes)
T1 sequence (P23634 1-1205 isoform P23634-6): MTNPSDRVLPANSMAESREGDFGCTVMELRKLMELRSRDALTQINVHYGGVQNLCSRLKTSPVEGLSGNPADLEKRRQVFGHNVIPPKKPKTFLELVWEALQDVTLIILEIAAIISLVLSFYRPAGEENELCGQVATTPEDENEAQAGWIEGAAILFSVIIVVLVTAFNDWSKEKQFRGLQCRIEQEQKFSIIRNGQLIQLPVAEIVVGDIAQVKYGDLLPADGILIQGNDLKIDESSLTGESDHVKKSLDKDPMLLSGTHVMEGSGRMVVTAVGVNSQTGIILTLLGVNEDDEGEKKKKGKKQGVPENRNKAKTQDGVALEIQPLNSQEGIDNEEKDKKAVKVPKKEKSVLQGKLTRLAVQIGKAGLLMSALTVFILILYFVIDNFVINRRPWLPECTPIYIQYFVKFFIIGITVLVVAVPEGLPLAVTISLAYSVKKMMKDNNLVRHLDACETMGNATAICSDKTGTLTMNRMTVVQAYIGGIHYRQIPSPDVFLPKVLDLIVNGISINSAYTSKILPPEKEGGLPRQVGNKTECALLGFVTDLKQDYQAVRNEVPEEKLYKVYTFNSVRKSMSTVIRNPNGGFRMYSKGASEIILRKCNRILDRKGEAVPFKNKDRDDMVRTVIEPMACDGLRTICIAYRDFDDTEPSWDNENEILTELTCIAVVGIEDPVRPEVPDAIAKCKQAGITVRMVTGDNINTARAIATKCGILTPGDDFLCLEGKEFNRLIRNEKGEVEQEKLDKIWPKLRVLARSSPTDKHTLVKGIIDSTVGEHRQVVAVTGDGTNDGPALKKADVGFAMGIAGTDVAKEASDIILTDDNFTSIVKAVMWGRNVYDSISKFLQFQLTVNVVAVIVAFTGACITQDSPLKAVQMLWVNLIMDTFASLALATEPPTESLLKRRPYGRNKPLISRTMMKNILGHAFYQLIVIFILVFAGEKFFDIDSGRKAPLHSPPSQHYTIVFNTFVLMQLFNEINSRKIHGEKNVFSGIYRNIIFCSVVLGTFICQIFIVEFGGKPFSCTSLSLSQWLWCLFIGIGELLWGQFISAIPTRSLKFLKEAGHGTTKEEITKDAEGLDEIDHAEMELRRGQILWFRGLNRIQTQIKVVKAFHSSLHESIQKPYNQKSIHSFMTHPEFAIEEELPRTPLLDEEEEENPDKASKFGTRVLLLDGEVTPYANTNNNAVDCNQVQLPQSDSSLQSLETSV
T1 sequence (P35613 140-385 partner limits assumed): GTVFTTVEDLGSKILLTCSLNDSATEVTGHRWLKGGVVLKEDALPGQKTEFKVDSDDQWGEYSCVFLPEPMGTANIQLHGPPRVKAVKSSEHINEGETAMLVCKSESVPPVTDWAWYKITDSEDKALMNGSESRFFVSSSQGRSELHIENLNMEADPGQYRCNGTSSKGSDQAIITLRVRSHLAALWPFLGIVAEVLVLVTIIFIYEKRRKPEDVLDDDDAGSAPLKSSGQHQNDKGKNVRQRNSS
Experimental: Natural and synthetic compounds of formula (I) were tested for their ability to influence human erythrocyte plasma membrane Ca^2+ -ATPase. The enzyme Ca^2+ -ATPase in the human red blood cell plasma membrane has previously been studied and its stimulation by calmodulin and activation by lipids and proteolysis and its primary structure have been published (see Carafoli E (1991) Calcium pump of the plasma membrane, Physiological Reviews 71, 129-153.
(§1) Calmodulin-depleted erythrocyte membranes were prepared by continuous filtration through a hollow fibre, Ashahi plasma separator as described by W S Price, B D Roufogalis, P W Kuchel (1989), A simple and inexpensive method for preparing erythrocyte membranes by filtration through a hollow-filter system, Anal. Biochem., 179, 190-193. Packed cells were obtained from the New South Wales Red Cross Transfusion Service, Sydney. The whole preparation was carried out at 4° C. 1 unit of packed red cells was washed 3 times with isotonic buffer, containing 130 mM KCl, 20 mM Tris-HCl (pH 7.4), and the cells were collected by centrifugation at 4,000 RPM. The cells were haemolysed by the buffer containing 1 mM EDTA, 10 mM Tris-Hcl (pH 7.4), 0.5 mM PMSF (phenylmethyl sulfonyl fluoride). The haemolyzate mixture was passed through the hollow fibre system until the membrane appeared white, and then washed with 10 mM potassium Hepes (pH 7.4). The membranes were collected by centrifugation at 10,000 RPM for 20 min, the membranes were resuspended in storage buffer containing 130 mM KCl, 2 mM dithiothreitol, 0.5 mM MgCl2, 20 mM potassium-Hepes (pH 7.5). The membranes with protein concentration of 1.5-5.4 mg/ml were stored at -80° C. until required.
Erythrocyte membranes were incubated at 37° C. for one hour in a total volume of 60 μl of 65 mM KCl, 50 mM HEPES (pH=7.4), 5 mM MgCl2, 50 μM CaCl2, 0.1 mM EGTA and in absence and presence of calmodulin (0.3 μM). Test compounds were dissolved in dimethyl sulfoxide DMSO and 2 μl was added to the assay mixture prior the addition of ATP. The final concentration of DMSO in the assay mixture was 3%. The reaction was started by adding 2 mM ATP (pH=7.4). After 1 hour of incubation, colouring agent (180 μl) was added and incubated at 37° C. for 1/2 hrs. The phosphate liberated to the assay medium was determined spectrometrically using a microplate reader at 750 nm. The activity of the Mg^2+ -ATPase (assayed in the absence of added CaCl2) was subtracted from the total activity assayed in the presence of Ca^2+.

[3] = target: T1, human erythrocyte plasma membrane Ca^2+ -ATPase; test: Ca^2+ -ATPase assay (erythrocyte membranes; Table 1); type: biochemical; settings: for inhibition at 100 µM / inhibition at 25 µM: read-out: INHIBITION OF Ca^2+ -ATPase PERCENT (%); for Ca^2+ -ATPase inhibitory activity relative to striatol: compared with natural product striatol
Experimental: Natural and synthetic compounds of formula (I) were tested for their ability to influence human erythrocyte plasma membrane Ca^2+ -ATPase.
as §1, with “Packed” for “Calmodulin-depleted erythrocyte membranes were prepared by continuous filtration through a hollow fibre, Ashahi plasma separator as described by W S Price, B D Roufogalis, P W Kuchel (1989), A simple and inexpensive method for preparing erythrocyte membranes by filtration through a hollow-filter system, Anal. Biochem., 179, 190-193. Packed”
Erythrocyte membranes (0.071-0.098 mg/ml) were incubated at 37° C. for one hour in a total volume of 0.4 ml of 65 mM KCl, 20 mM potassium-Hepes, 5 mM MgCl2, 50 μM CaCl2, 0.1 μm calmodulin, 0.1 mM EGTA. The reaction was started by adding 2 mM ATP(pH 7.4). […] The activity of the Mg^2+ -ATPase (assayed in the absence of added CaCl2) was subtracted from the total activity assayed in the presence of Ca^2+. […] A concentrated solution of the test substances was added to the reaction medium before adding ATP.

[4] = tested on: brine shrimp (Artemia salina Leach); settings: determined by Meyer et al.; cited from earlier work
[5] = tested on: purified erythrocyte Ca^2+ -ATPase; test: Inhibition of purified erythrocyte Ca^2+ -ATPase; type: biochemical; settings: purified enzyme
[6] = tested on: ^45 Ca^2+ efflux from rat thoracic aorta smooth muscle cells; test: ^45 Ca^2+ efflux from cultured vascular smooth muscle cells; type: cell-based
From the text: ^45 Ca efflux from cultured vascular smooth muscle cells consists of two major mechanisms; one is dependent on extracellular sodium, mediated by the Na^+ -Ca^2+ exchanger (Na^+ - dependent Ca^2+ efflux), and the other is independent of extracellular sodium but is mediated by the Ca^2+ pump (Na^+ - independent Ca^2+ efflux). The effect of striatol on the efflux of calcium (^45 Ca^2+) from rat thoracic aorta smooth muscle cells in culture was studied. ^45 Ca^2+ efflux is a measure of plasma membrane Ca^2+ -ATPase (plus Na^+ : Ca^2+ exchange) in intact (whole) cells.

[7] = absence of calmodulin, read-out: IC50 (-CaM)
[8] = presence of calmodulin (0.3 μM), read-out: IC50 (+CaM)
[9] = read-out: INHIBITION OF Ca^2+ -ATPase IC50

Row | Structure (SMILES) | LC50 ([1]; 24 hours) | IC50 [2, 7] [µM] | IC50 [2, 8] [µM] | Ca^2+ -ATPase inhibitory activity (in words) [3] | IC50 [3, 9] [µM] | further results
1 | CCCCCCCCCc1ccccc1O [2-nonylphenol] |  |  |  |  |  | LC50 ([1]; 24 h): 480 nM and 0.11 µg/mL; IC50 ([2]; IC50 (+CaM), presence of calmodulin (0.3 μM)): 40 µM; IC50 ([2]; IC50 (-CaM), absence of calmodulin): 36 µM; IC50 [3]: 30 µM; inhibition at 100 µM [3]: 95%
2 | CCCCCCCCCCCCc1ccc(O)cc1O [4-dodecylresorcinol, reference compound] | 8.8 µM and 2.4 µg/mL | 80 | 100 | most potent among the alkylresorcinols tested | 69 | inhibition at 100 µM ([3]; at 100 μM): 68%
3 | COc1cc([C@@H]2c3cc4c(cc3[C@H](O)[C@H]3COC(=O)[C@H]23)OCO4)cc(OC)c1OC [podophyllotoxin, reference compound] |  |  |  |  |  | LC50 ([1]; 24 h): 3.8 µM and 1.6 µg/mL; LC50 [4]: 5.8 µM; LC50 brine shrimp (Meyer et al.) [4]: 2.4 µg/mL (≈ 5.79 µM)
4 | Oc1ccccc1CCCCCCCCCCc1ccccc1O [1,10-bis(2-hydroxyphenyl)decane] | 1.9 µM and 0.62 µg/mL | 8.4 | 9 | strongest Ca^2+ -ATPase inhibition among the synthesised phenolic compounds | 7.6 | toxicity to brine shrimp (in words) ([1]; 24 hours): moderately toxic; Ca^2+ -ATPase inhibitory activity (in words) [2]: most potent inhibitors of plasma Ca^2+ -ATPase among the synthesised substances; inhibition at 25 µM [3]: 100%; Ca^2+ -ATPase inhibitory activity relative to striatol [3]: two-fold higher
5 | Oc1ccccc1CCCCCCCCCCCCc1ccccc1O [1,12-bis(2-hydroxyphenyl)dodecane] | 2.6 µM and 0.94 µg/mL | 12.5 | 13 | strongest Ca^2+ -ATPase inhibition among the synthesised phenolic compounds | 8.3 | inhibition at 25 µM [3]: 100%; Ca^2+ -ATPase inhibitory activity relative to striatol [3]: two-fold higher
6 | Cc1c(O)cc(CCCCCCCCCCCCCCc2cc(O)c(C)c(O)c2)cc1O [striatol, 1,14-bis(3,5-dihydroxy-4-methylphenyl)tetradecane] | 11 µM and 4.9 µg/mL |  |  |  | 16 | toxicity to brine shrimp (in words) ([1]; 24 hours): relatively low toxicity; inhibitory activity with purified erythrocyte Ca^2+ -ATPase [5]: confirmed; inhibition of ^45 Ca^2+ efflux ([6]; 20 μM, 5 min): partial inhibition; inhibition of ^45 Ca^2+ efflux ([6]; 20 μM, 10 min): partial inhibition; inhibition of ^45 Ca^2+ efflux ([6]; 50 μM, 30 min): complete inhibition; inhibition at 100 µM ([3]; at 100 μM): 98%
7 | Oc1cccc(CCCCCCCCCCc2cccc(O)c2)c1 [1,10-bis(3-hydroxyphenyl)decane] | 3 µM and 0.98 µg/mL | 30 | 32 |  |  | 
8 | Oc1ccccc1CCCCCCCCc1ccccc1O [1,8-bis(2-hydroxyphenyl)octane] | 3 µM and 0.89 µg/mL | 24 | 24 |  |  | 

Source: patent US5859067A, “Use of natural products and related synthetic compounds for the treatment of cardiovascular disease” (priority 1993, dated 1999)
